Drawing on patent US20040235863A1, “Morpholine-bridged pyrazolopyridine derivatives” (priority 2001, published 2004), this text covers IC50 for 1 compound.

The test has as its system rabbit aorta rings contracted with phenylephrine. As to the kind of experiment: Vasorelaxant effect in vitro. On the set-up: species or system Rabbits. The conditions noted are these: Oryctolagus cuniculus; isolated rabbit aorta rings, phenylephrine-induced contraction, concentration reducing height of contraction by 50%. Here is the method: Vasorelaxant Effect in Vitro
Rabbits are stunned by a blow to the back of the neck and are exsanguinated. The aorta is removed, freed of adherent tissue, divided into rings 1.5 mm wide and put singly under tension in 5 ml organ baths containing carbogen-gassed Krebs-Henseleit solution at 37° C. with the following composition (mM): NaCl: 119; KCl: 4.8; CaCl2×2H2O: 1; MgSO4×7H2O: 1.4; KH2PO4: 1.2; NaHCO3: 25; glucose: 10. The force of contraction is detected with Statham UC2 cells, amplified and digitized via A/D converters (DAS-1802 HC, Keithley Instruments Munich) and recorded in parallel on chart recorders. A contraction is generated by adding phenylephrine to the bath cumulatively in increasing concentration. After several control cycles, the substance to be investigated is investigated in each further run in increasing dosage in each case, and the height of the contraction is compared with the height of the contraction reached in the last preceding run. The concentration necessary to reduce the height of the control value by 50% (IC50) is calculated from this. The standard application volume is 5 μl, and the DMSO content in the bath solution corresponds to 0.1%.

Molecules are shown by their SMILES.

As usually defined, the IC50 is the concentration needed to halve the response being measured. In the case of `Nc1nc(-c2nn(Cc3ccccc3F)c3ncccc23)ncc1N1C2CCCC1COC2` [Example 2, 2-[1-(2-Fluorobenzyl)-1H-pyrazolo[3,4-b]pyridin-3-yl]-5-(3-oxa-9-azabicyclo[3.3.1]non-9-yl)-4-pyrimidinylamine], the IC50 came out at 300 nM. This counts as sub-micromolar.
